Test results from patent US20070155012A1, “Method for production of neurons from cells of a cell line” (priority 2003, published 2007).

Tested on: NT2 cells
Test: Response of NT2 cells to growth factors: count of viable spherical cells after three days of culture
Assay type: cell-based, human
Details: growth factor present exclusively in growth medium NS; viable cells counted after three days of culture into spheres; FIG. 3
Protocol: This step permits to obtain the first passing over into spheres of NT2 cells that are then cultured, preferably at 100000 cells/ml in 75 ml flasks of the FALCON™ (trademark registered by the Falcon company) type having filtering plugs containing 15 ml of growth medium (NS) not containing bovine serum, defined by the following composition: DMEM/F12 (50%/50%), 2 mM glutamine, N2 complement, 0.6% glucose, 20 μg/ml insulin, to which are added extemporaneously growth factors EGF at 20 ng/ml, bFGF at 10 ng/ml, 2 μg/ml heparin or growth factor LIF at 10 ng/ml or 20 n/ml.
The way NT2 cells respond to growth factors […] and bFGF was studied by counting viable spherical cells obtained after three days of culture in the presence either of the one or the other, either of the one and the other of them then dissociated.
Results represented in FIG. 3 show the number of viable cells after three days, whereas the horizontal line indicates culture density.
Although it was found, unexpectedly, that NT2 cells were capable of forming spheres in the absence of growth factors, they proliferate differently under the action of the latter, and according to the type of growth factors added to the growth medium NS.

| Substance | rate of proliferation of NT2 cells multiplied by (with respect to cultures without growth factor) |
| --- | --- |
| EGF: epidermal growth factor, added to growth medium at 20 ng/ml | 1.5 |
| bFGF: basic fibroblast growth factor, added to growth medium at 10 ng/ml | 2.2 |
